Converted amounts (≈) assume the structure as drawn. Where two headings read alike, the source gives them in different places.
What was measured:
[1] = Microsomal stability, human; type: in vitro ADME
[2] = Microsomal stability, rat; type: in vitro ADME
CHO cells [3] = experiment: Cytotoxicity screen in CHO cells
CHO cells [4] = experiment: Ant44 rescue assay in CHO cells (Assay 1); type: cell-based, Chinese hamster; conditions: for EC50 / IC50: Cricetulus griseus
L3.6pl cells [5] = experiment: Ant44 assay in L3.6pl cells; type: cell-based, human
Description: For example, in the ANT44 assay an EC48=9 means that the PTI molecule at 9 μM was able to block 48% of the Ant44 entry into L3.6 pl human Pancreatic ductal adenocarcinoma cells after 72 h incubation time at 37° C. Another explanation, is that the PTI was able to disrupt […] of the intracellular trafficking of Ant44 that leads to toxicity. Recall a polyamine transport inhibitor can work at any one (or more than one) of the different steps involved in the multi-step polyamine import and intracellular trafficking process. Blocking the entering spermidine from reaching its intended intracellular target is another way in which these compounds may function.
The higher EC value denotes the compound is giving a relative % growth of L3.6 pl cells consistent with inhibiting either Ant44 uptake or blocking the uptake of the rescuing dose of spermidine. Alternatively these compounds may disrupting the intracellular trafficking of Ant44 and spermidine so they cannot reach their intended intracellular target.

Solubility = type: physicochemical; conditions: for solubility: PBS
L3.6pl cells [6] = experiment: cells; type: cell-based
[7] = Microsomal stability, mouse; type: in vitro ADME
[8] = test system: DFMO treated Chinese hamster ovary (CHO) cells; experiment: DFMO/spermidine rescue assay in CHO cells (Assay 2); type: cell-based; conditions: Cricetulus griseus
Plasma stability, rat = type: in vitro ADME
Plasma stability, human = type: in vitro ADME
Plasma stability, mouse = type: in vitro ADME
[9] = summary of Table 6 (human, mouse, rat)

COc1ccc(C(=O)Nc2ccc(N3CCN(c4ccccc4OC)CC3)cc2C(=O)O)cc1 [SBI-0800678]
Microsomal Stability % remaining at 1 hour ([1]; Human): 52.0%
microsomal stability [1, 9]: good
Microsomal Stability % remaining at 1 hour [2]: 58.0%
IC50 at 48 h (CHO cells [3]; Chinese hamster, CHO K1 cells): > 40 µM
CHO MTD (CHO cells [3]; hamster): >32 µM
Tox (Ant44) (CHO cells [3]; toxic above the stated concentration, CHO cells, listed with Ant44 assay): SBI- 0800678.0001 (20 EC50) Tox >20 μM
tox (DFMO Assay) (CHO cells [3]; toxic above the stated concentration, CHO cells, listed with DFMO assay): > 15 µM
EC50 (CHO cells [4]; CHO, Table 2, Active in Ant44 assay?, read-out: Ant44 assay EC50 in CHO): ~20 µM
IC50 (CHO cells [4]; CHO, Table 7, read-out: SAR IC50 Ant44 assay): 9 µM
EC50 (CHO cells [4]; Table 1 HTS top hits, CHO cells, read-out: Ant44 EC50): 20 µM
IC50 (CHO cells [4]; Table 4B, CHO cells, read-out: Ant44 IC50): 9 µM
Active in Ant44 assay? (CHO cells [4]; Table 2, in CHO): Yes
worked in Assay 1 (Ant44) (L3.6pl cells [5]): worked
solubility in PBS (Solubility): poorly soluble
solubility (Solubility; aqueous buffer, pH 5.0): 0.3 µg/mL (≈ 0.65 µM)
solubility (Solubility; pH 6.2, aqueous buffer): 0.1 µg/mL (≈ 0.217 µM)
solubility (Solubility; pH 7.4, aqueous buffer): > 0.1 µg/mL
IC50 (L3.6pl cells [6]; Homo sapiens, L3.6pl, relative growth after 72 h, read-out: L3.6pl IC50): 13.3 ± 0.04 µM
L3.6pl MTC (L3.6pl cells [6]; maximum tolerated concentration where cells are >90% viable): 6 µM
Microsomal Stability % remaining at 1 hour [7]: 60.4%
EC50 ([8]; CHO, Table 2): ~25 µM
IC50 ([8]; Table 1 HTS top hits, CHO cells, read-out: DFMO Assay IC50): 15 to 25 µM
Plasma Stability % remaining at 3 hours (Plasma stability, rat): 55.3%
Plasma Stability % remaining at 3 hours (Plasma stability, human; Human): 88.0%
plasma stability (Plasma stability, human; [9]): good
Plasma Stability % remaining at 3 hours (Plasma stability, mouse): 83.1%

— patent US11905268B2, “Anthranilic acid derivatives and their use in the treatment of human cancers” (UNIVERSITY OF CENTRAL FLORIDA RESEARCH FOUNDATION, INC., priority 2018, dated 2024)
